Experimental findings from patent publication US7129361B2, “Thienylazolylalkoxyethanamines, their preparation and their application as medicaments” (Laboratorios del Dr. Esteve, S.A., priority 1998, dated 2006) are described below.

In one data set the test system is Male Swiss mice. The experiment in a line: Analgesic activity: inhibition of contortions induced by phenylbenzoquinone in mice (Siegmund method). Type of data set: in vivo. The following applies: 160 mg/Kg, oral administration, 60 minutes before i.p. phenylbenzoquinone; contortions counted for 15 minutes; versus vehicle control. How it is done:
Analgesic Activity: Inhibition of Contortions Induced by Phenylbenzoquinone in Mice
The method described by Siegmund (E. Siegmund, et al, Proc. Exp. Biol. Med., 1957, 95, 729) has been used. Male Swiss mice are used, weighing between 17 and 22 grams and in groups of at least four animals.
The contortions are induced by injecting i.p. phenyl-p-benzoquinone (25 ml/Kg of a solution of 0.02% ethanol/water −5% v/v—with Evans blue at a mixing ratio of 0.1% p/v). The contortions are counted for 15 minutes after the moment of the injection. The products to be tested are suspended in Arabic gum (5% p/v) and distilled water and administered orally, at a dosage of 160 mg/Kg, 60 minutes before the phenylbenzoquinone injection. The inhibition of contortions produced by each product is determined, taking the contortions of a group of animals given a control as a reference. These animals only receive the vehicle orally, 60 minutes before administration of phenylbenzoquinone.
As for `CN(C)CCOC(c1cccs1)c1ccnn1C.O=C(O)CC(O)(CC(=O)O)C(=O)O` (stereo not drawn) [Example 12, Citrate of (+)-5-{α-[2-(dimethylamino)ethoxy]-2-thienylmethyl}-1-methyl-1H-pyrazol], the “% Inhibition of contortions” value came out at 52%.

As for `CC(=O)Oc1ccccc1C(=O)O` [Acetylsalicylic acid, reference compound], the “% Inhibition of contortions” value was 51%. For the molecule `CC(=O)Nc1ccc(O)cc1` [N-acetyl-p-aminophenol, reference compound], the “% Inhibition of contortions” value worked out at 34%. Consider `Cc1ccsc1C(OCCN(C)C)c1ccnn1C` (stereo not drawn) [Example 5, 5-{α-[2-(dimethylamino)ethoxy]-3-methyl-2-thienylmethyl}-1-methyl-1H-pyrazol], for which the “% Inhibition of contortions” value is recorded as 45%. Regarding `CN(C)CCOC(c1cccs1)c1ccnn1C.O=C(O)CC(O)(CC(=O)O)C(=O)O` (stereo not drawn) [Example 13, Citrate of (−)-5-{α-[2-(dimethylamino)ethoxy]-2-thienylmethyl}-1-methyl-1H-pyrazol], the “% Inhibition of contortions” value came to 87%. For `CN(C)CCOC(c1cccs1)c1ccnn1C.O=C(O)CC(O)(CC(=O)O)C(=O)O` (stereo not drawn) [Example 2, Citrate of 5-{α-[2-(dimethylamino)ethoxy]-2-thienylmethyl}-1-methyl-1H-pyrazol], the “% Inhibition of contortions” value is recorded as 65%.

`CN(C)CCOC(C)(c1cccs1)c1ccnn1C` (stereo not drawn) [Example 9, 5-{1-[2-(dimethylamino)ethoxy]-1-(2-thienyl)ethyl}-1-methyl-1H-pyrazol]: the “% Inhibition of contortions” value was found to be 37%. In the case of `CN(C)CCOC(c1cccs1)c1ccnn1C` (stereo not drawn) [Example 1, 5-{α-[2-(dimethylamino)ethoxy]-2-thienylmethyl}-1-methyl-1H-pyrazol], the “% Inhibition of contortions” value amounted to 71%.

Tested on in the next data set: not given
Experiment: not given
Details: not given
For the molecule `Cn1nccc1C(C)(O)c1cccs1` (stereo not drawn) [Example 21, 5-[1-hydroxy-1-(2-thienyl)ethyl]-1-methyl-1H-pyrazol], the melting point fell in the range of 130 to 131 °C.
